Activity calls are given as the source filed them. The calls are words filed in the database; no cut-off is given here.

For assay [1], the species on record is Rattus norvegicus. Briefly: Compound was evaluated for the anticonvulsant activity in amygdala kindled rats; Inactive. The class given is functional, organism-based.
The target in assay [2] is 4-aminobutyrate aminotransferase, mitochondrial (Homo sapiens) (UniProt P80404). Briefly: Compound was tested for the inhibition of Gamma-amino-N-butyrate transaminase; Active.
The target in assay [3] is T1, Succinate-semialdehyde dehydrogenase, mitochondrial (Homo sapiens) (UniProt P51649).
T1 sequence (whole entry): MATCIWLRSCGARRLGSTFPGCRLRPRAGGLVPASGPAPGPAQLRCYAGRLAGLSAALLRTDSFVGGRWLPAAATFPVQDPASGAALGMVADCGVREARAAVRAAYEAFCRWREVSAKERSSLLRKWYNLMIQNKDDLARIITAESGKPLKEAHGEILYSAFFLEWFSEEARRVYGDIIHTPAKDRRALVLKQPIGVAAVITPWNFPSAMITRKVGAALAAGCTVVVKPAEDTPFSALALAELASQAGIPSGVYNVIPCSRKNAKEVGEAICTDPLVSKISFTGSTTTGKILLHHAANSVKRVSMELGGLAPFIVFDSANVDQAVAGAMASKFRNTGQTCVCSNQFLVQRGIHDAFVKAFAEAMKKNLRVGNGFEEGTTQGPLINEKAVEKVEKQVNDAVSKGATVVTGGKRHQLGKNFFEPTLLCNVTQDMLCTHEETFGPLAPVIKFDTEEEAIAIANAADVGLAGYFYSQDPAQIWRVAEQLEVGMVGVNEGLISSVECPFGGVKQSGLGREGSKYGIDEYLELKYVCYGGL
The assay can be described thus: Compound was tested for the inhibition of succinic semialdehyde dehydrogenase; Active.

Assay [4] is filed under the species Rattus norvegicus. The assay can be described thus: Compound was evaluated for the anticonvulsant activity in amygdala kindled rats; Active. The class given is functional, organism-based.

Sequence of 4-aminobutyrate aminotransferase, mitochondrial (Homo sapiens) (P80404 whole entry): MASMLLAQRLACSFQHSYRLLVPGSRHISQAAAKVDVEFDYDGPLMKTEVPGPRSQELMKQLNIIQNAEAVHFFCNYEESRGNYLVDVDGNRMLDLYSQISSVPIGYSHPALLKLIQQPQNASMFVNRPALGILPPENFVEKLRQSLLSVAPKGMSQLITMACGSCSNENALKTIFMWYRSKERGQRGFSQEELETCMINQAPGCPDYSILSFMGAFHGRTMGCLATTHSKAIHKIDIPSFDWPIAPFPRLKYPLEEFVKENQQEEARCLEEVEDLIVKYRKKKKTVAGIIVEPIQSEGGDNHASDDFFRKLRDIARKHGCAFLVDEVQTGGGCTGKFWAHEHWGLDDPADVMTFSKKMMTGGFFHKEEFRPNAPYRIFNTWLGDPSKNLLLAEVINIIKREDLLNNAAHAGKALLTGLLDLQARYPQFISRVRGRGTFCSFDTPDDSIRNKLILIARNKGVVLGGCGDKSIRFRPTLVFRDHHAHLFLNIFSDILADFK

On to `CCCC(CCC)[PH](=O)O`, for which, in the assay filed under Rattus norvegicus [1], the result was inactive.

Turning to `CCCC(CCC)P(=O)(O)O`, the result in the assay listed under Rattus norvegicus [1] was inactive.

As to `CCCC(CCC)C(=O)O`, the result (in assay [2]; in assay [3]; in the assay listed under Rattus norvegicus [4]) was Active.

With `CCCC(CCC)P(C)(=O)O`, the outcome in the assay filed under Rattus norvegicus [1] was inactive.

The record behind these values is ChEMBL document CHEMBL1132812, “Novel phosphinic and phosphonic acid analogues of the anticonvulsant valproic acid” (Bioorg Med Chem Lett, 2000).
